From patent publication US20080063628A1, “METHODS TO PROMOTE CELL DIFFERENTIATION” (priority 2006, published 2008)

Assays:
[1] = tested on: early passage (P5) pancreatic-derived stromal cell line; experiment: Two high dose trichostatin A treatments (first 48 h), gene expression by RT-PCR (Example 9); format: cell-based, human; conditions: for HNF-3 beta gene expression / Insulin gene expression / Pdx-1 gene expression / glucagon gene expression: 5 μM 0-48 h + 96-120 h;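 for HNF-3 beta RT-PCR detection cycle: lower cycle number means higher gene expression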;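 for glucagon RT-PCR detection cycle: lower cycle number means higher gene expression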
Method: (§1) Several cell lines obtained from different amniotic fluid specimens (see Example 14) and pancreas donors (see Example 13) were tested with similar results. Two lines at similar passage number but derived from different amniotic fluid specimens are shown in Table VIII-A and Table VIII-B for this example. One of these cell lines was also used in examples 2 and 4 above. In addition, this example also contains comparison data in Table VIII-C and Table VIII-D for a single pancreatic-derived stromal line grown to early and late passage number.
(§2) Amniotic fluid derived cells or pancreatic-derived stromal cells were seeded into 24-well tissue culture plates at a density of 5000/cm^2 and cultured in AMNIOMAX (Invitrogen) or DMEM with 10% FBS respectively under standard cell culture conditions until confluent. After reaching confluence, amniotic fluid derived cells were treated at time 0 hours with a dose of 1.25 μM trichostatin A, and pancreatic-derived stromal cells were treated with a dose of 5.0 μM trichostatin A solubilized in DMSO and medium. At time 48 hours, cell cultures underwent a complete medium change to remove all traces of trichostatin A. At time 96 hours, cell cultures were re-fed with fresh medium and received a second dose of trichostatin A at the same concentration as used previously. At time 120 hours, cell cultures again underwent a complete medium change and were cultured for an additional 24 hours or […] total incubation time. Samples were taken for RT-PCR at the times indicated in Table IX-A to D. RNA samples were obtained daily from the start of the experiment. Culture medium was removed, and cells were washed with PBS then collected in RLT with β-mercaptoethanol (Qiagen). RNA was purified using the RNeasy Mini Kit (Qiagen) and RNA quantity and quality was determined using a spectrophotometer. cDNA was made using the iScript cDNA synthesis kit (BioRad). Human pancreas cDNA was included as a control. Results were normalized against GAPDH expression levels.
(§3) Gene expression levels of Sox17, HNF-3 beta, Pdx-1, insulin, and glucagon were analyzed in amniotic-derived cells, while expression levels of glucagon, insulin, HNF-3 beta, and Pdx-1 were analyzed in pancreas-derived cells. Samples of 20 ng cDNA was used in each Real-Time PCR reaction. RT-PCR was performed on the Applied Biosystems 7500, according to the methods described in Example 15. The data were analyzed using the accompanying software.
(§4) Real-time PCR amplifcation and quantitative analysis. Unless otherwise stated, all reagents were purchased from Applied Biosystems. Real-time PCR reactions were performed using the ABI PRISM™ 7500 Sequence Detection System. TAQMAN™ FAST UNIVERSAL PCR MASTER MIX™ (ABI, CA) was used with 20 ng of reverse transcribed RNA in a total reaction volume of 20 μl. Each cDNA sample was run in duplicate to allow correction of pipetting errors. Primers and FAM-labeled TAQMAN™ probes were used at concentrations of 200 nM. The level of expression for each target gene was normalized using the pre-developed Applied Biosystem's human glyceraldehyde-3-phosphate dehydrogenase (GAPDH) endogenous control kit. Primers and probes were designed using either ABI PRISM PRIMER EXPRESS™ software or a pre-developed ABI gene analysis kit. For each gene, either one of the primers or the probe were designed to be exon-boundary spanning. This eliminated the possibility of the primers/probe binding to any genomic DNA present. The primer and probe sets are listed as follows: Pdx-1 (Hs00426216), Insulin (Hs00355773), glucagon (Hs00174967), and FoxA2 (HNF 3-beta) (Hs00232764). The remaining primers were designed using the PRIMERS program (ABI, CA). After an initial 95° C. incubation for 20 sec, samples were cycled 40 times in two stages: a denaturation step at 95° C. for 3 sec, followed by an annealing/extension step at 60° C. for 30 sec. […]

[2] = tested on: late passage (P11) pancreatic-derived stromal cell line; experiment: as above; format: cell-based, human; conditions: for HNF-3 beta gene expression / Insulin gene expression / Pdx-1 gene expression / glucagon gene expression: 5 μM 0-48 h + 96-120 h; for HNF-3 beta RT-PCR detection cycle / Pdx-1 RT-PCR detection cycle / glucagon RT-PCR detection cycle: 5.0 μM;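 for HNF-3 beta RT-PCR detection cycle: lower cycle number means higher gene expression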;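 for glucagon RT-PCR detection cycle: lower cycle number means higher gene expression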
Method: as §1, §2, §3, §4

[3] = 5.0 μM, following the second addition
[4] = for 48 hours following addition
[5] = once trichostatin A was added again

For `CC(/C=C/C(=O)NO)=C\[C@@H](C)C(=O)c1ccc(N(C)C)cc1` [trichostatin A], the “HNF-3 beta gene expression” value ([1]; 24 hrs) was “+++ (detectable at less than 35 cycles by RT-PCR with SE less than 0.9)”, the Insulin gene expression ([1]; 24 hrs) was “nd (not detectable at >40 cycles by RT-PCR)” and the Pdx-1 gene expression ([1]; 24 hrs) was “+++ (detectable at less than 35 cycles by RT-PCR with SE less than 0.9)”. For the same compound, the glucagon gene expression ([1]; 24 hrs) was “+++ (detectable at less than 35 cycles by RT-PCR with SE less than 0.9)”, the “HNF-3 beta gene expression” value ([1]; 48 hrs) was “+++ (detectable at less than 35 cycles by RT-PCR with SE less than 0.9)” and the Insulin gene expression ([1]; 48 hrs) was “nd (not detectable at >40 cycles by RT-PCR)”. The Pdx-1 gene expression ([1]; 48 hrs) was “+++ (detectable at less than 35 cycles by RT-PCR with SE less than 0.9)”, the glucagon gene expression ([1]; 48 hrs) was “+++ (detectable at less than 35 cycles by RT-PCR with SE less than 0.9)” and the “HNF-3 beta gene expression” value ([1]; 72 hrs) was “nd (not detectable at >40 cycles by RT-PCR)”. For the same compound, the Insulin gene expression ([1]; 72 hrs) was “+++ (detectable at less than 35 cycles by RT-PCR with SE less than 0.9)”, the Pdx-1 gene expression ([1]; 72 hrs) was “nd (not detectable at >40 cycles by RT-PCR)” and the glucagon gene expression ([1]; 72 hrs) was “+ (detectable between 35 and 40 cycles by RT-PCR)”. The “HNF-3 beta gene expression” value ([1]; 96 hrs) was “nd (not detectable at >40 cycles by RT-PCR)”, the Insulin gene expression ([1]; 96 hrs) was “nd (not detectable at >40 cycles by RT-PCR)” and the Pdx-1 gene expression ([1]; 96 hrs) was “nd (not detectable at >40 cycles by RT-PCR)”. The glucagon gene expression ([1]; 96 hrs) was “+ (detectable between 35 and 40 cycles by RT-PCR)”, the “HNF-3 beta gene expression” value ([1]; 120 hrs) was “+++ (detectable at less than 35 cycles by RT-PCR with SE less than 0.9)” and the Insulin gene expression ([1]; 120 hrs) was “nd (not detectable at >40 cycles by RT-PCR)”. For the same compound, the Pdx-1 gene expression ([1]; 120 hrs) was “+++ (detectable at less than 35 cycles by RT-PCR with SE less than 0.9)”, the glucagon gene expression ([1]; 120 hrs) was “+ (detectable between 35 and 40 cycles by RT-PCR)” and the “Pdx-1 RT-PCR detection cycle” value ([1]; 5.0 μM, 48 hours) was 32 cycles. For the same compound, the “glucagon RT-PCR detection cycle” value ([1]; 5.0 μM, 48 hours) was 33 cycles, the “glucagon RT-PCR detection cycle” value ([1]; 5.0 μM, after trichostatin A was removed) was 38 cycles and the “Insulin RT-PCR detection cycle” value ([1]; 5.0 μM, following the medium change) was 33 cycles. For the same compound, the “Pdx-1 RT-PCR detection cycle” value [1, 3] was 32 cycles, the “glucagon RT-PCR detection cycle” value [1, 3] was 37 cycles and the “glucagon RT-PCR detection cycle” value ([1]; 5.0 μM, following treatment) was 35 cycles. The “HNF-3 beta RT-PCR detection cycle” value ([1]; 5.0 μM, following treatment until removal) was 34 cycles, the “HNF-3 beta RT-PCR detection cycle” value ([1]; 5.0 μM, when trichostatin A was added again) was 33 cycles and the “HNF-3 beta gene expression” value ([2]; 24 hrs) was “+++ (detectable at less than 35 cycles by RT-PCR with SE less than 0.9)”. The Insulin gene expression ([2]; 24 hrs) was “nd (not detectable at >40 cycles by RT-PCR)”, the Pdx-1 gene expression ([2]; 24 hrs) was “+ (detectable between 35 and 40 cycles by RT-PCR)” and the glucagon gene expression ([2]; 24 hrs) was “+++ (detectable at less than 35 cycles by RT-PCR with SE less than 0.9)”. The “HNF-3 beta gene expression” value ([2]; 48 hrs) was “+++ (detectable at less than 35 cycles by RT-PCR with SE less than 0.9)”, the Insulin gene expression ([2]; 48 hrs) was “nd (not detectable at >40 cycles by RT-PCR)” and the Pdx-1 gene expression ([2]; 48 hrs) was “+++ (detectable at less than 35 cycles by RT-PCR with SE less than 0.9)”. For the same compound, the glucagon gene expression ([2]; 48 hrs) was “+++ (detectable at less than 35 cycles by RT-PCR with SE less than 0.9)”, the “HNF-3 beta gene expression” value ([2]; 72 hrs) was “nd (not detectable at >40 cycles by RT-PCR)” and the Insulin gene expression ([2]; 72 hrs) was “nd (not detectable at >40 cycles by RT-PCR)”. For the same compound, the Pdx-1 gene expression ([2]; 72 hrs) was “nd (not detectable at >40 cycles by RT-PCR)”, the glucagon gene expression ([2]; 72 hrs) was “+ (detectable between 35 and 40 cycles by RT-PCR)” and the “HNF-3 beta gene expression” value ([2]; 96 hrs) was “nd (not detectable at >40 cycles by RT-PCR)”. For the same compound, the Insulin gene expression ([2]; 96 hrs) was “nd (not detectable at >40 cycles by RT-PCR)”, the Pdx-1 gene expression ([2]; 96 hrs) was “nd (not detectable at >40 cycles by RT-PCR)” and the glucagon gene expression ([2]; 96 hrs) was “nd (not detectable at >40 cycles by RT-PCR)”. For the same compound, the “HNF-3 beta gene expression” value ([2]; 120 hrs) was “+++ (detectable at less than 35 cycles by RT-PCR with SE less than 0.9)”, the Insulin gene expression ([2]; 120 hrs) was “+ (detectable between 35 and 40 cycles by RT-PCR)” and the Pdx-1 gene expression ([2]; 120 hrs) was “+++ (detectable at less than 35 cycles by RT-PCR with SE less than 0.9)”. For the same compound, the glucagon gene expression ([2]; 120 hrs) was “+ (detectable between 35 and 40 cycles by RT-PCR)”, the “HNF-3 beta RT-PCR detection cycle” value ([2]; after addition) was 32 cycles and the “Pdx-1 RT-PCR detection cycle” value ([2]; after addition) was 31 cycles. For the same compound, the “glucagon RT-PCR detection cycle” value ([2]; after addition (for 48 hours)) was 33 cycles, the “glucagon RT-PCR detection cycle” value ([2]; following the removal) was 37 cycles and the “HNF-3 beta RT-PCR detection cycle” value [2, 4] was 33 cycles. The “Pdx-1 RT-PCR detection cycle” value [2, 4] was 32 cycles, the “HNF-3 beta RT-PCR detection cycle” value [2, 5] was 34 cycles and the “Pdx-1 RT-PCR detection cycle” value [2, 5] was 33 cycles. For the same compound, the “glucagon RT-PCR detection cycle” value ([2]; second treatment) was 35 cycles.
